Reference: patent publication US20260130395A1, “Water Dispersible Botanical Compositions” (Aquila Black Limited, priority 2021, published 2026)

Experiment: Stability of cannabinoid entourage and Vitamin E components of the powder concentrate by LCMSMS
Type: physicochemical
Details: for Stability of Plant-Derived Cannabinoid Compounds in Powder Concentrate: powder stored at 21-25° C.
Method: At each time period, 0.05 g of powder was dissolved in 10 ml-15 of ethanol, diluted to fall within the analytical range, and injected into the LCMSMS for analysis.

CCCCCc1cc(O)c2c(c1)OC(C)(CCC=C(C)C)C=C2 (stereo not drawn) [CBC, cannabichromene]
Stability of Plant-Derived Cannabinoid Compounds in Powder Concentrate (0 days): 0.070 mg/g powder
Stability of Plant-Derived Cannabinoid Compounds in Powder Concentrate (1 days): 0.072 mg/g powder
Stability of Plant-Derived Cannabinoid Compounds in Powder Concentrate (2 days): 0.071 mg/g powder
Stability of Plant-Derived Cannabinoid Compounds in Powder Concentrate (3 days): 0.073 mg/g powder
Stability of Plant-Derived Cannabinoid Compounds in Powder Concentrate (5 days): 0.070 mg/g powder
Stability of Plant-Derived Cannabinoid Compounds in Powder Concentrate (8 days): 0.071 mg/g powder
Stability of Plant-Derived Cannabinoid Compounds in Powder Concentrate (9 days): 0.068 mg/g powder
Stability of Plant-Derived Cannabinoid Compounds in Powder Concentrate (10 days): 0.071 mg/g powder
Stability of Plant-Derived Cannabinoid Compounds in Powder Concentrate (11 days): 0.071 mg/g powder
Stability of Plant-Derived Cannabinoid Compounds in Powder Concentrate (12 days): 0.069 mg/g powder
Stability of Plant-Derived Cannabinoid Compounds in Powder Concentrate (15 days): 0.073 mg/g powder
Stability of Plant-Derived Cannabinoid Compounds in Powder Concentrate (16 days): 0.073 mg/g powder
Stability of Plant-Derived Cannabinoid Compounds in Powder Concentrate (17 days): 0.070 mg/g powder
Stability of Plant-Derived Cannabinoid Compounds in Powder Concentrate (18 days): 0.072 mg/g powder
Stability of Plant-Derived Cannabinoid Compounds in Powder Concentrate (19 days): 0.070 mg/g powder
Stability of Plant-Derived Cannabinoid Compounds in Powder Concentrate (22 days): 0.071 mg/g powder
Stability of Plant-Derived Cannabinoid Compounds in Powder Concentrate (23 days): 0.069 mg/g powder
Stability of Plant-Derived Cannabinoid Compounds in Powder Concentrate (24 days): 0.068 mg/g powder
Stability of Plant-Derived Cannabinoid Compounds in Powder Concentrate (25 days): 0.072 mg/g powder
Stability of Plant-Derived Cannabinoid Compounds in Powder Concentrate (26 days): 0.071 mg/g powder
Stability of Plant-Derived Cannabinoid Compounds in Powder Concentrate (29 days): 0.069 mg/g powder
Stability of Plant-Derived Cannabinoid Compounds in Powder Concentrate (30 days): 0.072 mg/g powder
Stability of Plant-Derived Cannabinoid Compounds in Powder Concentrate (60 days): 0.068 mg/g powder
Stability of Plant-Derived Cannabinoid Compounds in Powder Concentrate (90 days): 0.068 mg/g powder
Stability of Plant-Derived Cannabinoid Compounds in Powder Concentrate (120 days): 0.072 mg/g powder
Stability of Plant-Derived Cannabinoid Compounds in Powder Concentrate (150 days): 0.072 mg/g powder
Stability of Plant-Derived Cannabinoid Compounds in Powder Concentrate (180 days): 0.071 mg/g powder
Stability of Plant-Derived Cannabinoid Compounds in Powder Concentrate (210 days): 0.072 mg/g powder
Stability of Plant-Derived Cannabinoid Compounds in Powder Concentrate (240 days): 0.068 mg/g powder
Stability of Plant-Derived Cannabinoid Compounds in Powder Concentrate (270 days): 0.072 mg/g powder
Stability of Plant-Derived Cannabinoid Compounds in Powder Concentrate (300 days): 0.071 mg/g powder
Stability of Plant-Derived Cannabinoid Compounds in Powder Concentrate (330 days): 0.069 mg/g powder
Stability of Plant-Derived Cannabinoid Compounds in Powder Concentrate (360 days): 0.068 mg/g powder
Stability of Plant-Derived Cannabinoid Compounds in Powder Concentrate (390 days): 0.068 mg/g powder
Stability of Plant-Derived Cannabinoid Compounds in Powder Concentrate (420 days): 0.069 mg/g powder
Stability of Plant-Derived Cannabinoid Compounds in Powder Concentrate (450 days): 0.073 mg/g powder
Stability of Plant-Derived Cannabinoid Compounds in Powder Concentrate (480 days): 0.071 mg/g powder
Stability of Plant-Derived Cannabinoid Compounds in Powder Concentrate (510 days): 0.069 mg/g powder
Stability of Plant-Derived Cannabinoid Compounds in Powder Concentrate (540 days): 0.070 mg/g powder
Stability of Plant-Derived Cannabinoid Compounds in Powder Concentrate (570 days): 0.069 mg/g powder

CCCCCc1cc(O)c2c(c1)OC(C)(C)[C@@H]1CCC(C)=C[C@@H]21 [D9 THC, delta-9-tetrahydrocannabinol, reference compound]
degradation over the entire period (in words) (powder concentrate stored at 21-25° C., 570 days): no significant degradation
Stability of Plant-Derived Cannabinoid Compounds in Powder Concentrate (0 days): 2.55 mg/g powder
Stability of Plant-Derived Cannabinoid Compounds in Powder Concentrate (1 days): 2.55 mg/g powder
Stability of Plant-Derived Cannabinoid Compounds in Powder Concentrate (2 days): 2.46 mg/g powder
Stability of Plant-Derived Cannabinoid Compounds in Powder Concentrate (3 days): 2.63 mg/g powder
Stability of Plant-Derived Cannabinoid Compounds in Powder Concentrate (5 days): 2.66 mg/g powder
Stability of Plant-Derived Cannabinoid Compounds in Powder Concentrate (8 days): 2.49 mg/g powder
Stability of Plant-Derived Cannabinoid Compounds in Powder Concentrate (9 days): 2.49 mg/g powder
Stability of Plant-Derived Cannabinoid Compounds in Powder Concentrate (10 days): 2.60 mg/g powder
Stability of Plant-Derived Cannabinoid Compounds in Powder Concentrate (11 days): 2.58 mg/g powder
Stability of Plant-Derived Cannabinoid Compounds in Powder Concentrate (12 days): 2.65 mg/g powder
Stability of Plant-Derived Cannabinoid Compounds in Powder Concentrate (15 days): 2.49 mg/g powder
Stability of Plant-Derived Cannabinoid Compounds in Powder Concentrate (16 days): 2.54 mg/g powder
Stability of Plant-Derived Cannabinoid Compounds in Powder Concentrate (17 days): 2.54 mg/g powder
Stability of Plant-Derived Cannabinoid Compounds in Powder Concentrate (18 days): 2.55 mg/g powder
Stability of Plant-Derived Cannabinoid Compounds in Powder Concentrate (19 days): 2.51 mg/g powder
Stability of Plant-Derived Cannabinoid Compounds in Powder Concentrate (22 days): 2.46 mg/g powder
Stability of Plant-Derived Cannabinoid Compounds in Powder Concentrate (23 days): 2.65 mg/g powder
Stability of Plant-Derived Cannabinoid Compounds in Powder Concentrate (24 days): 2.60 mg/g powder
Stability of Plant-Derived Cannabinoid Compounds in Powder Concentrate (25 days): 2.55 mg/g powder
Stability of Plant-Derived Cannabinoid Compounds in Powder Concentrate (26 days): 2.52 mg/g powder
Stability of Plant-Derived Cannabinoid Compounds in Powder Concentrate (29 days): 2.47 mg/g powder
Stability of Plant-Derived Cannabinoid Compounds in Powder Concentrate (30 days): 2.66 mg/g powder
Stability of Plant-Derived Cannabinoid Compounds in Powder Concentrate (60 days): 2.66 mg/g powder
Stability of Plant-Derived Cannabinoid Compounds in Powder Concentrate (90 days): 2.49 mg/g powder
Stability of Plant-Derived Cannabinoid Compounds in Powder Concentrate (120 days): 2.66 mg/g powder
Stability of Plant-Derived Cannabinoid Compounds in Powder Concentrate (150 days): 2.61 mg/g powder
Stability of Plant-Derived Cannabinoid Compounds in Powder Concentrate (180 days): 2.59 mg/g powder
Stability of Plant-Derived Cannabinoid Compounds in Powder Concentrate (210 days): 2.54 mg/g powder
Stability of Plant-Derived Cannabinoid Compounds in Powder Concentrate (240 days): 2.53 mg/g powder
Stability of Plant-Derived Cannabinoid Compounds in Powder Concentrate (270 days): 2.47 mg/g powder
Stability of Plant-Derived Cannabinoid Compounds in Powder Concentrate (300 days): 2.57 mg/g powder
Stability of Plant-Derived Cannabinoid Compounds in Powder Concentrate (330 days): 2.49 mg/g powder
Stability of Plant-Derived Cannabinoid Compounds in Powder Concentrate (360 days): 2.58 mg/g powder
Stability of Plant-Derived Cannabinoid Compounds in Powder Concentrate (390 days): 2.48 mg/g powder
Stability of Plant-Derived Cannabinoid Compounds in Powder Concentrate (420 days): 2.53 mg/g powder
Stability of Plant-Derived Cannabinoid Compounds in Powder Concentrate (450 days): 2.61 mg/g powder
Stability of Plant-Derived Cannabinoid Compounds in Powder Concentrate (480 days): 2.65 mg/g powder
Stability of Plant-Derived Cannabinoid Compounds in Powder Concentrate (510 days): 2.64 mg/g powder
Stability of Plant-Derived Cannabinoid Compounds in Powder Concentrate (540 days): 2.47 mg/g powder
Stability of Plant-Derived Cannabinoid Compounds in Powder Concentrate (570 days): 2.64 mg/g powder
